These results are taken from ChEMBL document CHEMBL1142835, “(S,E)-N-[1-(3-heteroarylphenyl)ethyl]-3-(2-fluorophenyl)acrylamides: synthesis and KCNQ2 potassium channel opener activity” (Bioorg Med Chem Lett, 2005).

For experiment [1], the target named is Potassium voltage-gated channel subfamily KQT member 2 (Mus musculus) (UniProt Q9Z351). Description: Relative efficacy as ratio of maximal current amplitudes for compound and reference. Format: functional.
For experiment [2], the target named is Potassium voltage-gated channel subfamily KQT member 2 (Mus musculus, UniProt Q9Z351). The experiment is described as follows: Effect on outward potassium currents in whole-cell patch clamp assay of HEK 293 cells expressing cloned mouse KCNQ2 channel at -40 mV. Format: functional, cell-based, HEK293. (In general: The patch-clamp technique gives a direct electrical read-out from membranes.)
Chain of Potassium voltage-gated channel subfamily KQT member 2 (Q9Z351 whole entry): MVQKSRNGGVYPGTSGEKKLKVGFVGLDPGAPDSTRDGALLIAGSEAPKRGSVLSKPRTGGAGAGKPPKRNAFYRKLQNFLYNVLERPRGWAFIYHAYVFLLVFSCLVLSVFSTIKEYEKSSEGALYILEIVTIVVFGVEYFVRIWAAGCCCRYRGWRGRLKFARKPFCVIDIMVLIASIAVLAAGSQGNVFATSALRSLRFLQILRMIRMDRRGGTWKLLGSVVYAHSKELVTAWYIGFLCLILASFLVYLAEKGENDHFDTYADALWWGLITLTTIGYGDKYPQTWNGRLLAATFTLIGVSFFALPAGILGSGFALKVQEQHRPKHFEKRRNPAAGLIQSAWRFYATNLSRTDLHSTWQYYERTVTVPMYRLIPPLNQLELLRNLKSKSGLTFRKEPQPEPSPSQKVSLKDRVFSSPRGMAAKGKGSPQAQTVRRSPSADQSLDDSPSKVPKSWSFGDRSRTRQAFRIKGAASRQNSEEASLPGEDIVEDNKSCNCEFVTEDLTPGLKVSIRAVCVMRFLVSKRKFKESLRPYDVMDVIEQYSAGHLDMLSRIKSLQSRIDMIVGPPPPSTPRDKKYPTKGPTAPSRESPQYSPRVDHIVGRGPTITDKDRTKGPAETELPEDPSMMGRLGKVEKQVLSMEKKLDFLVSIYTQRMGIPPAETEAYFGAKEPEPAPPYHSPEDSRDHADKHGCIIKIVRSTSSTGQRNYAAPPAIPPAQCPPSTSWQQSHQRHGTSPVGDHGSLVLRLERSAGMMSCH

Chain of Potassium voltage-gated channel subfamily KQT member 2 (Mus musculus) (Q9Z351 whole entry): as above

Turning to `C[C@H](NC(=O)/C=C/c1ccccc1F)c1cccc(-n2cncn2)c1`, the E/Eref in experiment [1] was 1.2. The same compound returned a concentration giving a half-maximal response (EC50) in experiment [2] of 330 nM.

In the case of `C[C@H](NC(=O)/C=C/c1ccccc1F)c1cccc(-n2cccn2)c1`, in experiment [1], the E/Eref came out at 1.6. In experiment [2], this compound came in with a concentration giving a half-maximal response (EC50) of 120 nM.

For `C[C@H](NC(=O)/C=C/c1ccccc1)c1cccc(-n2cccn2)c1`, the E/Eref in experiment [1] amounted to 1.9. Besides, a half-maximal effect in experiment [2] (EC50) was put at 1200 nM.

As for `C[C@H](NC(=O)/C=C/c1ccccc1Cl)c1ccc2c(c1)OCO2`, in experiment [1], the E/Eref worked out at 1.1. In experiment [2], this compound gave an EC50 of 20 nM.

Turning to `C[C@H](NC(=O)/C=C/c1ccccc1F)c1cccc(-c2ccccn2)c1`, in experiment [1], the E/Eref was determined as 1.8. The same compound displayed a concentration giving a half-maximal response (EC50) in experiment [2] of 1200 nM.

For the compound `C[C@H](NC(=O)/C=C/c1ccccc1)c1cccc(N2CCOCC2)c1`, the E/Eref in experiment [1] was found to be 1.4. In addition, in experiment [2], the EC50 was determined as 3200 nM.

Take `C[C@H](NC(=O)/C=C/c1ccccc1F)c1cccc(-c2cnccn2)c1`: the E/Eref in experiment [1] amounted to 1.57. The compound also had an EC50 in experiment [2] of 370 nM.

For the compound `CCOC(=O)Nc1ccc(NCc2ccc(F)cc2)cc1N`, in experiment [1], the E/Eref came to 1.6.

On to `C[C@H](NC(=O)/C=C/c1ccccc1F)c1cccc(-c2ccc(F)nc2)c1`, for which, in experiment [1], the E/Eref was determined as 0.85. In experiment [2], this compound returned a 50% effective concentration (EC50) of 10 nM.

As to `C[C@H](NC(=O)/C=C/c1ccccc1F)c1ccc2c(c1)N(CC1CC1)CCO2`, the E/Eref in experiment [1] amounted to 1.83.

In general, EC50 refers to the concentration at which the effect is half-maximal. Higher therefore signals weaker potency.
